Results published in patent US20240018123A1, “COMPOUND FOR INHIBITING OR DISINTEGRATING ANDROGEN RECEPTOR, AND PHARMACEUTICAL USE THEREOF” (KOREA RESEARCH INSTITUTE OF CHEMICAL TECHNOLOGY, priority 2020, published 2024).

Experiments:
Androgen receptor (AR) = target: T1, Androgen receptor (AR) (Homo sapiens, UniProt P10275, T878A); test: Assessment of AR proteolytic activity (Western blotting of LNCap cell lysates); type: cell-based; details: 24 hours of treatment, Western blotting quantified with Image J
T1 construct: 5.5×10^5 LNCap cells were injected into each well of a 6-well plate; endogenous in cells; host or cells: LNCaP
T1 sequence (P10275 1-920 T878A): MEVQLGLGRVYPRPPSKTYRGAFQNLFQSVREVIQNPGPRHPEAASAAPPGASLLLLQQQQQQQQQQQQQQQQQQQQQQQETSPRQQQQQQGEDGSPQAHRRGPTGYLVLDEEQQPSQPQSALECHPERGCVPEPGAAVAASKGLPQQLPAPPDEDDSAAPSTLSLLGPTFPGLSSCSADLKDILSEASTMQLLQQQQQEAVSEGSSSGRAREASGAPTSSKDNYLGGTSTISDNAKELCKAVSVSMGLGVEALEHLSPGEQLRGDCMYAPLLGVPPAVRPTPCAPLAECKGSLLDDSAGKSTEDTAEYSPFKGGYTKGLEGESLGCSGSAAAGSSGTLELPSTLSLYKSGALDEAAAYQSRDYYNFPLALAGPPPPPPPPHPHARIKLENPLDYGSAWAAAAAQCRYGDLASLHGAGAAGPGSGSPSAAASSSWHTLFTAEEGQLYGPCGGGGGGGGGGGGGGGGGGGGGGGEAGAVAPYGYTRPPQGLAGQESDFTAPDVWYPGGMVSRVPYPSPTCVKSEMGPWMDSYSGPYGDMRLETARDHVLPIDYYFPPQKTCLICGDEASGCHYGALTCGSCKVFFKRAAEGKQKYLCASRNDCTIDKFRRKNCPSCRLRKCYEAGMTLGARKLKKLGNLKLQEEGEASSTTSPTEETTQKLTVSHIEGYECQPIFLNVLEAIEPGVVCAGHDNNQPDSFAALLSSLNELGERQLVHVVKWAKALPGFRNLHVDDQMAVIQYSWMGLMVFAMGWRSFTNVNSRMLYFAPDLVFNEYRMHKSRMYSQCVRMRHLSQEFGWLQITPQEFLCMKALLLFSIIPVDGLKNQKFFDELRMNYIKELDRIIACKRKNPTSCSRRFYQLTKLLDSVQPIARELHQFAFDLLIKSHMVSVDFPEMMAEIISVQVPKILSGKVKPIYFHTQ
In short: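 AR degradation read by Western blot densitometry on RIPA lysates (pH 7.5, protease inhibitor cocktail). Lysates came from LNCap cells, 5.5×10^5 per well, exposed to compound for 24 hours.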

Row | Compound | Degradation (1 μM treated in LNCaP, % AR remaining) (Androgen receptor (AR)) | CC50 (VCaP cells)
1 | CC1(C)C(NC(=O)c2ccc(N3CCN(C=C4CCN(C(=O)C5CN(c6ccc7nnn(C8CCC(=O)NC8=O)c(=O)c7c6)C5)CC4)CC3)cc2)C(C)(C)C1Oc1ccc(C#N)c(Cl)c1 (stereo not drawn) [Example 66, N-((1r,3r)-3-(3-chloro-4-cyanophenoxy)-2,2,4,4-tetramethylcyclobutyl)-4-(4-((1-(1-(3-(2,6-dioxopiperidin-3-yl)-4-oxo-3,4-dihydrobenzo[d][1,2,3]triazin-6-yl)azetidine-3-carbonyl)piperidin-4-ylidene)methyl)piperazin-1-yl)benzamide] | 35% | 18.2 nM
2 | CC1(C)C(NC(=O)c2ccc(N3CCN(CC4CCN(C(=O)CN5CCN(c6ccc7nnn(C8CCC(=O)NC8=O)c(=O)c7c6)CC5)CC4)CC3)cc2)C(C)(C)C1Oc1ccc(C#N)c(Cl)c1 (stereo not drawn) [Example 58, N-((1r,3r)-3-(3-chloro-4-cyanophenoxy)-2,2,4,4-tetramethylcyclobutyl)-4-(4-((1-(2-(4-(3-(2,6-dioxopiperidin-3-yl)-4-oxo-3,4-dihydrobenzo[d][1,2,3]triazin-6-yl)piperazin-1-yl)acetyl)piperidin-4-yl)methyl)piperazin-1-yl)benzamide] | 11.4% | 330 nM
3 | CC1(C)C(NC(=O)c2ccc(N3CCN(C(=O)COc4ccc5nnn(C6CCC(=O)NC6=O)c(=O)c5c4)CC3)cc2)C(C)(C)C1Oc1ccc(C#N)c(Cl)c1 (stereo not drawn) [Example 41, N-((1r,3r)-3-(3-chloro-4-cyanophenoxy)-2,2,4,4-tetramethylcyclobutyl)-4-(4-(2-((3-(2,6-dioxopiperidin-3-yl)-4-oxo-3,4-dihydrobenzo[d][1,2,3]triazin-6-yl)oxy)acetyl)piperazin-1-yl)benzamide] | 12.3% | 20 nM
4 | CC1(C)C(NC(=O)c2ccc(N3CCN(CC4CCN(CCNC(=O)COc5ccc6nnn(C7CCC(=O)NC7=O)c(=O)c6c5)CC4)CC3)cc2)C(C)(C)C1Oc1ccc(C#N)c(Cl)c1 (stereo not drawn) [Example 60, N-((1r,3r)-3-(3-chloro-4-cyanophenoxy)-2,2,4,4-tetramethylcyclobutyl)-4-(4-((1-(2-(2-((3-(2,6-dioxopiperidin-3-yl)-4-oxo-3,4-dihydrobenzo[d][1,2,3]triazin-6-yl)oxy)acetamido)ethyl)piperidin-4-yl)methyl)piperazin-1-yl)benzamide] | 20.3% | 3280 nM
5 | CC1(C)C(NC(=O)c2ccc(N3CCN(CCCOC4CCN(C(=O)C5CN(c6ccc7nnn(C8CCC(=O)NC8=O)c(=O)c7c6)C5)CC4)CC3)cc2)C(C)(C)C1Oc1ccc(C#N)c(Cl)c1 (stereo not drawn) [Example 36, N-((1r,3r)-3-(3-chloro-4-cyanophenoxy)-2,2,4,4-tetramethylcyclobutyl)-4-(4-(3-((1-(1-(3-(2,6-dioxopiperidin-3-yl)-4-oxo-3,4-dihydrobenzo[d][1,2,3]triazin-6-yl)azetidine-3-carbonyl)piperidin-4-yl)oxy)propyl)piperazin-1-yl)benzamide] | 9.8% | 36.5 nM
6 | CC1(C)C(NC(=O)c2ccc(N3CCN(CC4(O)CCN(C(=O)CNc5ccc6nnn(C7CCC(=O)NC7=O)c(=O)c6c5)CC4)CC3)cc2)C(C)(C)C1Oc1ccc(C#N)c(Cl)c1 (stereo not drawn) [Example 53, N-((1r,3r)-3-(3-chloro-4-cyanophenoxy)-2,2,4,4-tetramethylcyclobutyl)-4-(4-((1-((3-(2,6-dioxopiperidin-3-yl)-4-oxo-3,4-dihydrobenzo[d][1,2,3]triazin-6-yl)glycyl)-4-hydroxypiperidin-4-yl)methyl)piperazin-1-yl)benzamide] | 5.8% | 19.7 nM

More lines, main results first:

Row | Degradation (1 μM treated in LNCaP, % AR remaining) (Androgen receptor (AR)) | Compound | CC50 (VCaP cells)
7 | 9% | CC1(C)C(NC(=O)c2ccc(C3CCN(CCOC4CCN(C(=O)C5CN(c6ccc7nnn(C8CCC(=O)NC8=O)c(=O)c7c6)C5)CC4)CC3)cc2)C(C)(C)C1Oc1ccc(C#N)c(Cl)c1 (stereo not drawn) [Example 75, N-((1r,3r)-3-(3-chloro-4-cyanophenoxy)-2,2,4,4-tetramethylcyclobutyl)-4-(1-(2-((1-(1-(3-(2,6-dioxopiperidin-3-yl)-4-oxo-3,4-dihydrobenzo[d][1,2,3]triazin-6-yl)azetidine-3-carbonyl)piperidin-4-yl)oxy)ethyl)piperidin-4-yl)benzamide] | 30.1 nM
8 | 13.3% | CC1(C)C(NC(=O)c2ccc(N3CCN(C(=O)CN4CCN(c5ccc6nnn(C7CCC(=O)NC7=O)c(=O)c6c5)CC4)CC3)cc2)C(C)(C)C1Oc1ccc(C#N)c(Cl)c1 (stereo not drawn) [Example 57, N-((1r,3r)-3-(3-chloro-4-cyanophenoxy)-2,2,4,4-tetramethylcyclobutyl)-4-(4-(2-(4-(3-(2,6-dioxopiperidin-3-yl)-4-oxo-3,4-dihydrobenzo[d][1,2,3]triazin-6-yl)piperazin-1-yl)acetyl)piperazin-1-yl)benzamide] | 225 nM
9 | 40% | CC1(C)[C@H](NC(=O)c2ccc(N3CC4CC3CN4CC3CCN(C(=O)C4CN(c5ccc6nnn(C7CCC(=O)NC7=O)c(=O)c6c5)C4)CC3)cc2)C(C)(C)[C@H]1Oc1ccc(C#N)c(Cl)c1 (stereo partly drawn) [Example 73, N-((1r,3r)-3-(3-chloro-4-cyanophenoxy)-2,2,4,4-tetramethylcyclobutyl)-4-(5-((1-(1-(3-(2,6-dioxopiperidin-3-yl)-4-oxo-3,4-dihydrobenzo[d][1,2,3]triazin-6-yl)azetidine-3-carbonyl)piperidin-4-yl)methyl)-2,5-diazabicyclo[2.2.1]heptan-2-yl)benzamide] | 79.5 nM
10 | 99% | CC1(C)C(NC(=O)c2ccc(N3CCN(CC4CCN(CC5CCN(c6ccc7nnn(C8CCC(=O)NC8=O)c(=O)c7c6)CC5)CC4)CC3)cc2)C(C)(C)C1Oc1ccc(C#N)c(Cl)c1 (stereo not drawn) [Example 70, N-((1r,3r)-3-(3-chloro-4-cyanophenoxy)-2,2,4,4-tetramethylcyclobutyl)-4-(4-((1-((1-(3-(2,6-dioxopiperidin-3-yl)-4-oxo-3,4-dihydrobenzo[d][1,2,3]triazin-6-yl)piperidin-4-yl)methyl)piperidin-4-yl)methyl)piperazin-1-yl)benzamide] | 205 nM
11 | 88% | CC1(C)[C@H](NC(=O)c2ccc(N3CCN(CC4CCN(CC5CN(c6ccc7nnn(C8CCC(=O)NC8=O)c(=O)c7c6)C5)CC4)CC3)cc2)C(C)(C)[C@H]1Oc1ccc(C#N)c(Cl)c1 (stereo partly drawn) [Example 67, N-((1r,3r)-3-(3-chloro-4-cyanophenoxy)-2,2,4,4-tetramethylcyclobutyl)-4-(4-((1-((1-(3-(2,6-dioxopiperidin-3-yl)-4-oxo-3,4-dihydrobenzo[d][1,2,3]triazin-6-yl)azetidin-3-yl)methyl)piperidin-4-yl)methyl)piperazin-1-yl)benzamide] | 106 nM
12 | 74% | [C-]#[N+]c1ccc(OC2C(C)(C)C(NC(=O)c3ccc(N4CCN(CCc5cn(-c6ccc7nnn(C8CCC(=O)NC8=O)c(=O)c7c6)nn5)CC4)cc3)C2(C)C)cc1Cl (stereo not drawn) [Example 77, N-((1r,3r)-3-(3-chloro-4-isocyanophenoxy)-2,2,4,4-tetramethylcyclobutyl)-4-(4-(2-(1-(3-(2,6-dioxopiperidin-3-yl)-4-oxo-3,4-dihydrobenzo[d][1,2,3]triazin-6-yl)-1H-1,2,3-triazol-4-yl)ethyl)piperazin-1-yl)benzamide] | 46.6 nM
